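Growth conditions: 96-well plates. Treatment: test compound, 48 hours, 5 concentrations. Analysis: linear interpolation between bracketing concentrations; unreached endpoints set to highest concentration. The concentration for 50% growth inhibition is given as GI50. TGI marks complete inhibition of growth.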
Legend:
Test in all cases: NCI tumour cell line growth inhibition, 48 h
M19-MEL melanoma = system: M19-MEL melanoma
DMS 273 small cell lung = system: DMS 273 small cell lung
P388/ADR leukemia = system: P388/ADR leukemia
XF 498 CNS = system: XF 498 CNS
P388 leukemia = system: P388 leukemia
SNB-78 CNS = system: SNB-78 CNS
SN12K1 renal = system: SN12K1 renal
LXFL 529 NSCLC = system: LXFL 529 NSCLC
RXF-631 renal = system: RXF-631 renal

Row | SMILES | TGI (M19-MEL melanoma) [µM] | TGI (DMS 273 small cell lung) [µM] | TGI (P388/ADR leukemia) [µM] | TGI (XF 498 CNS) [µM] | TGI (P388 leukemia) [µM] | TGI (SNB-78 CNS) [µM] | TGI (SN12K1 renal) [µM] | GI50 (LXFL 529 NSCLC) [µM] | TGI (RXF-631 renal) [µM] | TGI (LXFL 529 NSCLC) [µM]
1 | COc1cc2c(ccc3c4cc(OC)c(OC)cc4c[n+](C)c23)cc1O | > 75 | > 75 | > 75 | 19.2 | 5.21 | > 75 | 14 | – | – | –
2 | [N-]=[N+]=CC(=O)c1ccccc1C#CCCc1ccccc1 | – | 73.7 | – | 41.3 | – | – | – | – | – | –
3 | CCCCCCCCC/C=C/C=C/C(=O)NCC(=O)NC1C(O)C(O)C(Nc2ncnc3nc[nH]c23)OC1C(O)CO (stereo not drawn) | 0.0253 | – | – | – | – | – | – | 0.0467 | – | –
4 | CN(C)CC(CC1=C(CC(CN(C)C)N(C)C)CCC1)N(C)C (stereo not drawn) | > 100 | > 100 | > 100 | > 100 | > 100 | – | > 100 | – | – | –
5 | Nc1ccccc1S(=O)(=O)c1ccccc1 | > 100 | > 100 | – | – | – | – | – | – | > 100 | > 100
6 | O=C(OCN1C(=O)C2C3C=CC(C2C1=O)C1C2C(=O)N(COC(=O)C4CCCN4)C(=O)C2C31)C1CCCN1 (stereo not drawn) | > 100 | > 56.4 | – | > 100 | – | > 100 | – | – | > 100 | > 100
7 | CNC(=O)OCc1c(CO)nc(SC)n1C | > 100 | > 100 | > 100 | > 100 | > 100 | – | > 100 | – | – | –
